Legend:
[1] = system: immune cell populations in tumor and spleen; assay: Immune activation and infiltration by flow cytometry; type: in vivo, CT-26-bearing BALB/c mice; conditions: 24 h after second dose
Protocol: (§1) Tumor size was determined daily via manual caliper measurement. […] Animals were euthanized via cervical dislocation.
The generation and treatment of tumor-bearing mice are outlined in the section “In vivo syngraft experiments” above. Samples were kept on ice during the whole procedure. Tissues were prepared as described previously.[55] In brief, tumor and spleen tissues were collected and mechanically dissociated in DPBS buffer containing Ca^2+/Mg^2+ and FCS (5%). Tumor samples were digested using collagenase VIII (1 mg mL^−1) in a DPBS buffer (without Ca^2+/Mg^2+) supplemented with DNAse I (1 mg mL^−1) for 15 min at 37 °C under constant shaking. Samples were filtered using 70 μm cell strainers in a DPBS buffer (without Ca^2+/Mg^2+) containing FCS (5%), EDTA (5 mM) and DNase I (20 μg mL^−1). Subsequent washing steps were performed in DPBS buffer (without Ca^2+/Mg^2+) containing FCS (5%), EDTA (5 mM) and DNase I (20 μg mL^−1), unless indicated otherwise. Red blood cells were removed by short incubation with ACK buffer. For blocking, samples were incubated with the Ultra-LEAF purified anti-mouse CD16/CD32 antibody (clone: 93; #101330; RRID:AB_2783037; dilution: 1 : 1000) (Biolegend, San Diego, CA, USA) in the BD Horizon Brilliant Stain Buffer (#563794; BD Biosciences) for 10 min. Next, the samples were incubated with an antibody mixture in the BD Horizon Brilliant Stain Buffer for 30 min. Fluorescent dye-labeled antibodies targeting murine CD3 (17A2; #100203; RRID:AB_312661; 1 : 50), CD8a (53-6.7; #100738; RRID:AB_11204079; 1 : 160), CD19 (6D5; #115528; RRID:AB_493735; 1 : 400), CD49b (DX5; #108924; RRID:AB_2565271; 1 : 229), CD11b (M1/70; #101228; RRID:AB_893232; 1 : 80), and CD69 (H1.2F3; # 104512; RRID:AB_493564; 1 : 40) were purchased from BioLegend. The antibody targeting murine CD4 (RM4-5; # 85-0042-U100; 1 : 80) and the viability dye Ghost Dye Red 780 (#13-0865-T100; 1 : 1000) were purchased from Tonbobio (San Diego, CA, USA). The antibody targeting CD45 (30-F11; #363-0451-82; RRID:AB_2925264; 1 : 80) was purchased from Life Tech (Invitrogen). For intracellular staining of granzyme B (GzmB) (QA16A02; #372208; RRID:AB_2687032; 1 : 20) and FoxP3 (MF-14; #320014; RRID:AB_439750; 1 : 100) the True-Nuclear Transcription Factor Buffer Set (Biolegend; #424401) was used according to the manufacturer's recommendations. In brief, samples were incubated with Perm Fix Solution for 60 min at RT. Next, the samples were stained with antibodies targeting GzmB and FoxP3 (diluted in Perm buffer) for 30 min at RT. […] Next day, the samples were analyzed using a Cytek Aurora 5L (Cytek Biosciences, CA, USA) spectral flow cytometer. Data were analyzed using SpectroFlo (v3.2.1) (Cytek Biosciences) and FlowJo (v10.8.1) (FlowJo LLC, Ashland, OR, USA) software.

[2] = biological target: T1, albumin (Bos taurus, UniProt P02769); assay: Albumin binding in fetal calf serum, SEC-ICP-MS; type: in vitro ADME; conditions: 50 μM in FCS, 37 °C, up to 24 h
T1 construct: Serum proteins have a retention span of ∼2–4 min as part of the high-molecular weight fraction with albumin at ∼4 min; tissue Sigma-Aldrich; host or cells: fetal calf serum (whole serum, buffered with 150 mM phosphate buffer pH 7.4)
Protocol: FCS was purchased from Sigma-Aldrich and buffered with 150 mM PB pH 7.4 to guarantee a stable pH. The platinum(IV) complexes were dissolved in 150 mM PB (pH 7.4) at a concentration of 5 mM and diluted 1 : 100 in the buffered serum to obtain a final concentration of 50 μM. The samples were then incubated in an autosampler at 37 °C and analyzed for 24 h. Between each sample, a pure water blank was measured. For SEC-ICP-MS measurements an Agilent 1260 Infinity system coupled to an Agilent 7800 ICP-MS equipped with a dynamic reaction cell was used. Oxygen (purity 5.5, Messer Austria GmbH, Gumpoldskirchen, Austria) was used as a reaction gas.

[3] = Platinum distribution study in vivo by ICP-MS; parameters: species or system CT-26 tumor-bearing BALB/c mice; conditions: i.v., 24 h after second dose; for serum platinum levels: two doses
Protocol: as §1
The generation and treatment of tumor-bearing mice are outlined in the section “In vivo syngraft experiments” described above. Mouse tissues were processed as described previously.[13] Briefly, serum was isolated from peripheral blood by centrifugation (900g, 10 min, 4 °C, twice). Tissues were digested in 20% nitric acid and hydrogen peroxide using an open-vessel graphite digestion system. The platinum concentration was determined by ICP-MS analysis; for details see “Intracellular platinum accumulation in vitro by ICP-MS”.

[4] = Cytokine and chemokine levels in plasma of treated animals, Luminex; type: in vivo, CT-26-bearing BALB/c mice; conditions: 24 h after second dose
Protocol: Next, the ProcartaPlex (96-well) multiplex assay panel was performed according to the manufacturer's recommendations. In brief, the capture bead mix was incubated with test samples (undiluted SN or mouse plasma) or standard mix overnight. The SN of three independent experiments or the plasma of four animals per treatment group was loaded onto the multiplex assay plate. Next, biotinylated detection antibody mix and Streptavidin-PE were added to the plate. Following the recommended washing steps, the samples were incubated in a reading buffer and were measured using a Luminex xMAP platform (Bio-Plex MAGPIX Multiplex Reader; Bio-Rad Laboratories) and analyzed using xPONENT software.
as §1

[5] = system: HCT116 cells; assay: MTT-based cell viability assay, 72 h; parameters: species or system human; conditions: without AA
Protocol: Cell models were seeded (2–2.5 × 10^3 cells per well) in 96-well plates. After 24 h of recovery, the compounds were applied at the concentrations indicated in triplicate. Cell viability was determined after 72 h of continuous drug incubation using an MTT-based cell viability assay (EZ4U, Biomedica, Vienna, Austria) according to the manufacturer's recommendations. Absorbance was measured at 450 nm (vs. 620 nm as reference) using a multimode microplate reader (Tecan Spark, Zurich, Switzerland). Half-maximal inhibitory concentrations (IC50 values) were derived via interpolation from dose–response curves, modeled with the four-parameter logistic (4PL) nonlinear regression model in GraphPad Prism (La Jolla, CA, USA) from at least three independent experiments.

T1 sequence (P02769 25-607): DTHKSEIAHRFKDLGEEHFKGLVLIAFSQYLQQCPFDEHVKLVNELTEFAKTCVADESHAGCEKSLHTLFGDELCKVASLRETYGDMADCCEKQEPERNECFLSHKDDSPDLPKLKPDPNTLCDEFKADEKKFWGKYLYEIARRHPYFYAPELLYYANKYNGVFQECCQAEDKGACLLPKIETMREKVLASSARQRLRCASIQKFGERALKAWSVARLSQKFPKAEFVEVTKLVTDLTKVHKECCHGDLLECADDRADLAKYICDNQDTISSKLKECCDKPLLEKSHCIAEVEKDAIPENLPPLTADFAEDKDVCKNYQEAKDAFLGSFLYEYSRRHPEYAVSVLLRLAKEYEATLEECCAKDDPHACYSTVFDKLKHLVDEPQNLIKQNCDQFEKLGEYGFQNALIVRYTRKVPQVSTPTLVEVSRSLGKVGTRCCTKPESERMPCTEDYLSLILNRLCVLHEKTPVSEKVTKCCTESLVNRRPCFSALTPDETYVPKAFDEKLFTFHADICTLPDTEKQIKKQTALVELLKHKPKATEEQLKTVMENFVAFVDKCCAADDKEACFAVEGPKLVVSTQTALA

SMILES	FoxP3+ CD4+ T cell compartment in the spleen [1]	ability to conjugate to albumin [2]	liver platinum level relative to tumor ([3]; two doses equimolar to 9 mg kg^−1 oxaliplatin) [fold]	serum platinum levels [3]	plasma IFN-β, IL-6 and M-CSF [4]	CD45+ cells among viable splenic cells [1]	splenic CD8+ T cells in the CD45+ cell population [1]	IC50 [5] [µM]
COCCOCCOCCOCCNC(=O)[O][Pt-2]12([O]C(=O)CCC(=O)c3cc4cc(OC)c(OC)cc4s3)([NH2+][C@@H]3CCCC[C@H]3[NH2+]1)[O]C(=O)C(=O)[O]2 [Ox-MSA-PEG-Ca, (OC-6-34)-[(1R,2R)-1,2-cyclohexanediamino]-oxalato-[4-(5,6-dimethoxybenzo[b]thiophen-2-yl)-4-oxobutylcarboxylato]-[3,6,9,12-tetraoxatridecan-1-amino]platinum(IV)]	selectively elevated	lacked the ability to conjugate to albumin	9.7	Low serum platinum levels	highest activations			
O=C1[O][Pt]2([NH][C@@H]3CCCC[C@H]3[NH]2)[O]C1=O [oxaliplatin, reference compound]				Low serum platinum levels		significantly upregulated	strongest effect	0.8
